PubChem BioAssay AID248 (DTP/NCI, 2004)
“And” between values parts separate entries of the source, which are not always exact repeats. Equal entries are not always repeated. Inconclusive results and toxic doses are left out. Rule as the data show it: active = T/C of 150% or more; inactive = T/C below 125%.

System: L1210 leukemia ip in BDF1 mice, survival T/C
Experiment: NCI In Vivo Anticancer Drug Screen. Data for tumor model L1210 Leukemia (intraperitoneal) in B6D2F1 (BDF1) mice
Conditions: endpoint: mean survival time, higher = longer survival
Outline: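 Tumor cells were implanted, animals were treated, and survival was followed. The result divides the treated measurement by the vehicle-control measurement.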

[1] = dose: 6.25 mg/kg/injection, schedule: Q01DX009 (ip), vehicle: saline with Tween-80
[2] = dose: 12.5 mg/kg/injection, schedule: Q01DX009 (ip), vehicle: saline with Tween-80
[3] = dose: 100.0 mg/kg/injection, schedule: Q01DX009 (ip), vehicle: Klucel (hydroxypropylcellulose) (HPC)
[4] = dose: 200.0 mg/kg/injection, schedule: Q01DX009 (ip), vehicle: Klucel (hydroxypropylcellulose) (HPC)
[5] = dose: 100.0 mg/kg/injection, schedule: Q04DX003 (ip), vehicle: saline with Tween-80
[6] = dose: 200.0 mg/kg/injection, schedule: Q04DX003 (ip), vehicle: saline with Tween-80
[7] = dose: 400.0 mg/kg/injection, schedule: Q04DX003 (ip), vehicle: saline with Tween-80
[8] = dose: 100.0 mg/kg/injection, schedule: Q01DX001 (ip), vehicle: carboxymethylcellulose (CMC)
[9] = dose: 100.0 mg/kg/injection, schedule: Q04DX002 (ip), vehicle: saline
[10] = dose: 200.0 mg/kg/injection, schedule: Q01DX001 (ip), vehicle: carboxymethylcellulose (CMC)

Measured: T/C

COc1cccc2c1C(=O)c1c(O)c3c(c(O)c1C2=O)CC(O)(C(C)=O)CC3OC1CC(NC(=S)Nc2ccccc2)C(O)C(C)O1 (stereo unspecified)
inactive: dose: 2.0 mg/kg/injection, schedule: Q04DX003 (ip), vehicle: water 105 % of control | dose: 3.12 mg/kg/injection, schedule: Q01DX009 (ip), vehicle: saline with Tween-80 117 % of control | dose: 4.0 mg/kg/injection, schedule: Q04DX003 (ip), vehicle: water 111 % of control | [1] 122 % of control | dose: 8.0 mg/kg/injection, schedule: Q04DX003 (ip), vehicle: water 106 % of control | [2] 123 % of control | dose: 16.0 mg/kg/injection, schedule: Q04DX003 (ip), vehicle: water 120 % of control and 123 % of control | dose: 32.0 mg/kg/injection, schedule: Q04DX003 (ip), vehicle: water 123 % of control | dose: 64.0 mg/kg/injection, schedule: Q04DX003 (ip), vehicle: water 118 % of control | dose: 125.0 micrograms/kg/injection, schedule: Q04DX003 (ip), vehicle: water 98 % of control | dose: 250.0 micrograms/kg/injection, schedule: Q04DX003 (ip), vehicle: water 103 % of control | dose: 500.0 micrograms/kg/injection, schedule: Q04DX003 (ip), vehicle: water 107 % of control | dose: 1000.0 micrograms/kg/injection, schedule: Q04DX003 (ip), vehicle: water 102 % of control | dose: 2000.0 micrograms/kg/injection, schedule: Q04DX003 (ip), vehicle: water 104 % of control

CS(=O)(=O)C(Cl)(Cl)S(C)(=O)=O
inactive: [1] 116 % of control | [2] 102 % of control | dose: 25.0 mg/kg/injection, schedule: Q01DX009 (ip), vehicle: saline with Tween-80 104 % of control

CCCCCCCCCC(=O)N/N=C/c1ccncc1
inactive: [3] 89 % of control | [4] 103 % of control

OCC(O)C1OC(Oc2ccccc2)C(O)C(O)C1O (stereo unspecified)
inactive: dose: 100.0 mg/kg/injection, schedule: Q04DX003 (ip), vehicle: saline 100 % of control | dose: 200.0 mg/kg/injection, schedule: Q04DX003 (ip), vehicle: saline 98 % of control | dose: 400.0 mg/kg/injection, schedule: Q04DX003 (ip), vehicle: saline 100 % of control

Cc1ccc(C)c(S(=O)(=O)OCC2CO2)c1 (stereo unspecified)
inactive: [5] 104 % of control | [6] 101 % of control | [7] 101 % of control

Cn1c(C=O)cc2ccccc21
inactive: [8] 90 % of control | dose: 100.0 mg/kg/injection, schedule: Q01DX009 (ip), vehicle: saline 94 % of control | [9] 110 % of control | [10] 98 % of control | dose: 200.0 mg/kg/injection, schedule: Q01DX009 (ip), vehicle: saline 97 % of control | dose: 200.0 mg/kg/injection, schedule: Q04DX002 (ip), vehicle: saline 104 % of control | dose: 400.0 mg/kg/injection, schedule: Q01DX001 (ip), vehicle: carboxymethylcellulose (CMC) 102 % of control | dose: 400.0 mg/kg/injection, schedule: Q04DX002 (ip), vehicle: saline 100 % of control

CNC(=O)Oc1ccc2ccccc2c1
inactive: dose: 100.0 mg/kg/injection, schedule: Q01DX009 (ip), vehicle: other 101 % of control | dose: 200.0 mg/kg/injection, schedule: Q01DX009 (ip), vehicle: other 104 % of control | dose: 400.0 mg/kg/injection, schedule: Q01DX009 (ip), vehicle: other 93 % of control

Cc1ccc(NC(=O)Nc2cc([N+](=O)[O-])ccc2F)cc1C
inactive: dose: 100.0 mg/kg/injection, schedule: Q04DX003 (ip), vehicle: Klucel (hydroxypropylcellulose) (HPC) 101 % of control | dose: 200.0 mg/kg/injection, schedule: Q04DX003 (ip), vehicle: Klucel (hydroxypropylcellulose) (HPC) 98 % of control | dose: 400.0 mg/kg/injection, schedule: Q04DX003 (ip), vehicle: Klucel (hydroxypropylcellulose) (HPC) 101 % of control

CC(I)CNc1ccc(C(=O)O)c(O)c1 (stereo unspecified)
inactive: dose: 100.0 mg/kg/injection, schedule: Q04DX003 (ip), vehicle: gum acacia 97 % of control | dose: 200.0 mg/kg/injection, schedule: Q04DX003 (ip), vehicle: gum acacia 89 % of control | dose: 400.0 mg/kg/injection, schedule: Q04DX003 (ip), vehicle: gum acacia 94 % of control

O=C(O)c1c(Cl)c(Cl)c(Cl)c(Cl)c1C(=O)O.O=C(O)c1c(Cl)c(Cl)c(Cl)c(Cl)c1C(=O)O.[Pt]
inactive: dose: 100.0 mg/kg/injection, schedule: Q04DX003 (ip), vehicle: saline sonified 105 % of control

CN1C(=O)C2(C)CCC1c1ccccc12 (stereo unspecified)
inactive: dose: 100.0 mg/kg/injection, schedule: Q01DX001 (ip), vehicle: other 103 % of control | dose: 200.0 mg/kg/injection, schedule: Q01DX001 (ip), vehicle: other 103 % of control

COc1ccc(C)cc1NC(=O)c1cccc(F)c1
inactive: [3] 106 % of control | [4] 101 % of control | dose: 400.0 mg/kg/injection, schedule: Q01DX009 (ip), vehicle: Klucel (hydroxypropylcellulose) (HPC) 97 % of control

NC(N)=N/N=C(/c1ccccc1)c1ccccc1N
inactive: dose: 15.0 mg/kg/injection, schedule: Q01DX Z (ip), vehicle: methylcellulose (MC) 105 % of control | dose: 30.0 mg/kg/injection, schedule: Q01DX Z (ip), vehicle: methylcellulose (MC) 102 % of control | dose: 60.0 mg/kg/injection, schedule: Q01DX Z (ip), vehicle: methylcellulose (MC) 105 % of control | dose: 120.0 mg/kg/injection, schedule: Q01DX Z (ip), vehicle: methylcellulose (MC) 97 % of control | dose: 120.0 mg/kg/injection, schedule: Q01DX Z (oral), vehicle: methylcellulose (MC) 88 % of control | dose: 240.0 mg/kg/injection, schedule: Q01DX Z (ip), vehicle: methylcellulose (MC) 88 % of control | dose: 240.0 mg/kg/injection, schedule: Q01DX Z (oral), vehicle: methylcellulose (MC) 98 % of control | dose: 480.0 mg/kg/injection, schedule: Q01DX Z (oral), vehicle: methylcellulose (MC) 101 % of control

CCOC(=O)C1(CCCN2C(=O)c3ccccc3C2=O)CC(C(=O)OCC)(C(=O)OCC)CCC1=O (stereo unspecified)
inactive: dose: 100.0 mg/kg/injection, schedule: Q04DX002 (ip), vehicle: saline with Tween-80 94 % of control | dose: 200.0 mg/kg/injection, schedule: Q04DX002 (ip), vehicle: saline with Tween-80 100 % of control

C[Si](C)(C)Cc1cccc(F)c1
inactive: dose: 25.6 mg/kg/injection, schedule: Q04DX002 (ip), vehicle: saline with Tween-80 93 % of control | dose: 64.0 mg/kg/injection, schedule: Q04DX002 (ip), vehicle: saline with Tween-80 90 % of control | dose: 160.0 mg/kg/injection, schedule: Q04DX002 (ip), vehicle: saline with Tween-80 87 % of control | dose: 400.0 mg/kg/injection, schedule: Q04DX002 (ip), vehicle: saline with Tween-80 97 % of control

CCNCCCNCC(Cc1ccccc1)c1ccccc1 (stereo unspecified)
inactive: [9] 102 % of control

Nc1nc2ncc(CCCNc3ccc(C(=O)NC(CCC(=O)O)C(=O)O)cc3)nc2c(=O)[nH]1 (stereo unspecified)
inactive: dose: 50.0 mg/kg/injection, schedule: Q01DX001 (ip), vehicle: carboxymethylcellulose (CMC) 94 % of control | [8] 108 % of control | [10] 94 % of control

c1ccc(Nc2ncn[nH]2)cc1
inactive: dose: 100.0 mg/kg/injection, schedule: Q04DX002 (ip), vehicle: gum acacia 106 % of control | dose: 200.0 mg/kg/injection, schedule: Q04DX002 (ip), vehicle: gum acacia 103 % of control | dose: 400.0 mg/kg/injection, schedule: Q04DX002 (ip), vehicle: gum acacia 117 % of control

CCOC(=O)CNc1ccc(C)c(F)c1
inactive: dose: 25.0 mg/kg/injection, schedule: Q04DX002 (ip), vehicle: Klucel (hydroxypropylcellulose) (HPC) 98 % of control | dose: 50.0 mg/kg/injection, schedule: Q04DX002 (ip), vehicle: Klucel (hydroxypropylcellulose) (HPC) 98 % of control | dose: 100.0 mg/kg/injection, schedule: Q04DX002 (ip), vehicle: Klucel (hydroxypropylcellulose) (HPC) 97 % of control and 109 % of control

O=C(Cn1ccc(=O)[nH]c1=O)c1cccs1
inactive: dose: 100.0 mg/kg/injection, schedule: Q01DX009 (ip), vehicle: saline with Tween-80 104 % of control | [5] 98 % of control | dose: 200.0 mg/kg/injection, schedule: Q01DX009 (ip), vehicle: saline with Tween-80 96 % of control | [6] 96 % of control | dose: 400.0 mg/kg/injection, schedule: Q01DX009 (ip), vehicle: saline with Tween-80 96 % of control | [7] 95 % of control

O=CC(S)CO (stereo unspecified)
inactive: dose: 200.0 mg/kg/injection, schedule: Q01DX001 (ip), vehicle: saline 103 % of control | dose: 400.0 mg/kg/injection, schedule: Q01DX001 (ip), vehicle: saline 97 % of control | dose: 800.0 mg/kg/injection, schedule: Q01DX001 (ip), vehicle: saline 108 % of control
